These results are taken from PubChem BioAssay AID1159565 (GlaxoSmithKline (GSK), 2015).

SMILES strings stand for the structures. Activity calls are given as the source filed them. How the calls were made is not given here.

The test system of this experiment is T. cruzi-infected H9C2 cardiomyocytes, high-content imaging. Briefly: anti-T. cruzi activity in infected cardiomyocytes – imaging, H9C2 host cardiomyocytes, host toxicity (AID 1159565).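 Further: infected cells incubated 72 h after plating.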
Setting [1] is: measured here: H9C2 host cell toxicity.
Setting [2] is: measured here: amastigotes per cell.

Regarding `Cc1c(CNC(=O)c2ccc(Cn3cc(Cl)c([N+](=O)[O-])n3)cc2)cnn1C`, the IC50 (usually the concentration at which inhibition is half-maximal) was 1.6 µM. Under setting [1], this molecule gave a half-inhibitory concentration (IC50) greater than 50 µM. The molecule also yielded an IC50 under setting [2] of 0.79 µM.

For `O=C(CN(Cc1ccccn1)Cc1ccccn1)NCc1ccc2c(c1)OCO2`, the IC50 was 13 µM. In addition, the half-maximal inhibitory concentration (IC50) under setting [1] is greater than 79 µM. The IC50 under setting [2] is 6.3 µM.

Consider `Cc1cc(N(C)C)nc2ccc(Cc3cnc(N)nc3N)cc12`, for which the IC50 was 6.3 µM. Further, the concentration for half-maximal inhibition (IC50) under setting [1] is greater than 50 µM. Also, the IC50 under setting [2] is 3.2 µM.

`COc1ccc(C2=NCC(CSc3nnc(-c4ccc5c(c4)OCO5)o3)S2)cc1` (centres undefined): the IC50 is 0.5 µM. Under setting [1], the IC50 is greater than 50 µM. In addition, the 50% inhibitory concentration (IC50) under setting [2] turned out to be 0.32 µM.

In the case of `Cc1cc(Br)cc(C(=O)c2c(C(C)C)c(=O)[nH]c(=O)n2Cc2ccnc(N)c2)c1`, the IC50 was 0.32 µM. The same molecule showed an IC50 under setting [1] greater than 50 µM. The IC50 under setting [2] was 0.25 µM.

In the case of `O=C(Cc1ccccc1)Nc1[nH]nc2sc(C(=O)NC3CCCC3)cc12`, the IC50 was 13 µM. The concentration for half-maximal inhibition (IC50) under setting [1] was 1.3 µM. Under setting [2], the half-inhibitory concentration (IC50) was 6.3 µM.

In the case of `CCN(CC)c1nc(Nc2ccncc2)nc2ccccc12`, the half-maximal inhibitory concentration (IC50) was 0.079 µM. For the same molecule, the 50% inhibitory concentration (IC50) under setting [1] was 7.9 µM. Also, the 50% inhibitory concentration (IC50) under setting [2] came out at 0.005 µM.

As to `O=C(CN(Cc1ccccn1)Cc1ccccn1)NCc1ccc(-c2csnn2)cc1`, the half-maximal inhibitory concentration (IC50) is 63 µM. Under setting [1], this molecule showed an IC50 greater than 79 µM. In addition, under setting [2], the IC50 came out at 7.9 µM.

Consider `CCOc1ccc(NC(=O)c2ccc(NC(=O)NC3CCCCC3)cc2)cc1`, for which the IC50 is > 50 µM (inactive). Besides, the IC50 under setting [1] is greater than 50 µM. Under setting [2], this molecule returned an IC50 greater than 50 µM.

On to `O=C1CN(Cc2ccco2)C2CS(=O)(=O)CC2N1c1ccc(Cl)cc1` (centres undefined), for which the IC50 was > 50 µM (inactive). Also, the IC50 under setting [1] was greater than 50 µM. This molecule also had an IC50 under setting [2] greater than 50 µM.

As for `Cc1ccc2c(c1)SC(C(=O)Nc1n[nH]c(-c3ccccn3)n1)C2` (centres undefined), the IC50 is 7.9 µM. For the same molecule, the IC50 under setting [1] is greater than 50 µM. In addition, the IC50 under setting [2] stood at 6.3 µM.

As to `O=c1ccc2ccc(F)c3c2n1C[C@H]3CN1CCC(NCc2cc3ccccc3o2)CC1`, the IC50 was 0.2 µM. Under setting [1], this molecule displayed a half-maximal inhibitory concentration (IC50) of 32 µM. The molecule also came in with an IC50 under setting [2] of 0.13 µM.

`Cc1c(Nc2cc(C3CC3)[nH]n2)ccc(C#N)c1Cl`: the half-maximal inhibitory concentration (IC50) is 25 µM. Also, the concentration for half-maximal inhibition (IC50) under setting [1] was 10 µM. Besides, the IC50 under setting [2] stood at 16 µM.

`c1ccc(Nc2nc(-c3ccccn3)cc(N3CCOCC3)n2)cc1`: the IC50 was > 50 µM (inactive). Moreover, the IC50 under setting [1] turned out to be 0.63 µM. Under setting [2], this molecule yielded an IC50 of 25 µM.

Regarding `CC(C(=O)Nc1ccc(Br)cc1)N1CCN(c2ccc([N+](=O)[O-])cc2)CC1` (centres undefined), the half-maximal inhibitory concentration (IC50) was 2.5 µM. Further, the IC50 under setting [1] is greater than 50 µM. The molecule further registered an IC50 under setting [2] of 3.2 µM.

As to `N#Cc1ccc(Br)cc1[N+](=O)[O-]`, the half-maximal inhibitory concentration (IC50) was 0.79 µM. The molecule further yielded an IC50 under setting [1] of 40 µM. This molecule also returned an IC50 under setting [2] of 0.063 µM.

Take `N#Cc1ccc(S(=O)(=O)N2CCN(Cc3cccc(-c4ccncc4)c3)CC2)cc1`: the IC50 is 0.25 µM. Under setting [1], this molecule registered a half-inhibitory concentration (IC50) of 25 µM. The IC50 under setting [2] was found to be 0.2 µM.

For the molecule `COc1ccccc1-c1c(C)[nH]c2nc(N)nc(C)c12`, the IC50 was 0.25 µM. Moreover, under setting [1], the IC50 is greater than 50 µM. Moreover, the IC50 under setting [2] was found to be 0.13 µM.

On to `CCC(c1ccc(F)cc1)n1cncc1-c1cnn(C)c1` (centres undefined), for which the IC50 was 0.32 µM. The IC50 under setting [1] is greater than 50 µM. Moreover, under setting [2], the IC50 amounted to 0.32 µM.

Turning to `COc1ccc(C(=O)Nc2ccc(NC(=O)CO)cc2)cc1`, the IC50 is > 50 µM (inactive). Also, under setting [1], the IC50 is greater than 50 µM. Further, the IC50 under setting [2] is greater than 50 µM.

For the molecule `O=C(c1cccc(Nc2ncc(-c3ccc4c(c3)OCO4)cn2)c1)N1CCSC1`, the IC50 is 0.25 µM. Moreover, the IC50 under setting [1] came out at 1 µM. Under setting [2], this molecule registered an IC50 of 0.2 µM.

As to `NC(=O)c1ncc(N[C@@H]2CCCNC2)nc1Nc1cccc(Cl)c1`, the IC50 was 0.4 µM. Also, under setting [1], the IC50 amounted to 1.3 µM. Moreover, under setting [2], the 50% inhibitory concentration (IC50) stood at 0.25 µM.

As for `NC(=O)c1ccsc1NC(=O)c1ccc([N+](=O)[O-])s1`, the IC50 was 0.13 µM. Besides, the IC50 under setting [1] was greater than 50 µM. This molecule also showed an IC50 under setting [2] of 0.1 µM.

For `CCCn1c(NC(=O)CCn2cc(Br)cn2)nc2ccccc21`, the IC50 was 6.3 µM. For the same molecule, the half-inhibitory concentration (IC50) under setting [1] was found to be 25 µM. Besides, the half-inhibitory concentration (IC50) under setting [2] was found to be 2.5 µM.

As to `CC(=O)Nc1ccc(-c2csc(NC(=O)c3ccc([N+](=O)[O-])s3)n2)cc1`, the IC50 was 0.13 µM. This molecule also displayed a half-maximal inhibitory concentration (IC50) under setting [1] of 5 µM. Moreover, the IC50 under setting [2] amounted to 0.1 µM.

Consider `COc1ccc(C(C)N(C)c2ncc3c(N)nc(N)nc3n2)cc1F` (centres undefined), for which the IC50 is 0.2 µM. The molecule further showed a half-maximal inhibitory concentration (IC50) under setting [1] of 25 µM. Under setting [2], this molecule gave an IC50 of 0.063 µM.

As to `O=C(CN1CCN(S(=O)(=O)c2cccc([N+](=O)[O-])c2)CC1)Nc1ccc(Oc2ccccc2)cc1`, the 50% inhibitory concentration (IC50) was 2.5 µM. The molecule further yielded an IC50 under setting [1] greater than 50 µM. The same molecule registered an IC50 under setting [2] of 1.3 µM.

Turning to `O=C(NCCc1csc(-c2cccc(F)c2)n1)c1ccco1`, the IC50 is 1.6 µM. Under setting [1], this molecule returned a half-inhibitory concentration (IC50) of 10 µM. Moreover, the IC50 under setting [2] was 1.3 µM.
